Biological target: T1, Full-length, GST-tagged, human CaMKIIδ (Homo sapiens, UniProt Q13557)
T1 construct: Full-Length, Glutathione-S-Transferase(GST)-Tagged, Human CaMKIIδ was purchased from Carna Biosciences; purchased Carna Biosciences 02-111
Experiment: CaMKIIδ binding assay (TR-FRET with BODIPY-labeled probe ligand)
Conditions: CaMKIIδ binding assay, results of Table 2
Method in brief: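 Compounds were tested as 4-fold, eight-point series for 1 hr at room temperature, and IC50 was obtained by logistic fitting against a 3 μM parent-compound control. Signal came from displacement of a 300 nM BODIPY ligand from 0.5 nM GST-CaMKIIδ, detected via Tb-anti-GST in calmodulin/Ca2+ (pH 7.6).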

T1 sequence (Q13557 1-478 isoform Q13557-12): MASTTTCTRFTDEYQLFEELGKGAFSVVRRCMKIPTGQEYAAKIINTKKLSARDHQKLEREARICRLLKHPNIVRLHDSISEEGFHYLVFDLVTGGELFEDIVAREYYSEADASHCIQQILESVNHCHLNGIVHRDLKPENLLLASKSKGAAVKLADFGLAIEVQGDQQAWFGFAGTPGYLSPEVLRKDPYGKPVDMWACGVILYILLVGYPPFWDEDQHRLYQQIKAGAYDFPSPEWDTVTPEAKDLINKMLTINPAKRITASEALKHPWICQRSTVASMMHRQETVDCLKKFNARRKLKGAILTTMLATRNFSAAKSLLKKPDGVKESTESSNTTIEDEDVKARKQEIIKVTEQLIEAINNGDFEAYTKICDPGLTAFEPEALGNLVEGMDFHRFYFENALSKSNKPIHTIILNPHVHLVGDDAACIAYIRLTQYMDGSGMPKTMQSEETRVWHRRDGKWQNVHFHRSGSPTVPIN

| SMILES | IC50 [nM] |
| --- | --- |
| COc1cnc(N2CCCC(N3CCOCC3)C2)cc1Nc1ncc(-c2ccc(Cl)c(O[C@@H](C)Cn3cnnn3)c2)cn1 (stereo partly drawn) [Example 457, 5-(3-(((S)-1-(1H-tetrazol-1-yl)propan-2-yl)oxy)-4-chlorophenyl)-N-(5-methoxy-2-(3-morpholinopiperidin-1-yl)pyridin-4-yl)pyrimidin-2-amine] | 10 to 100 |
| C[C@@H](Cn1cnnn1)Oc1cc(-c2cnc(Nc3cn(C4CCN(Cc5cccnc5)CC4)nc3C(F)(F)F)nc2)ccc1Cl [Example 563, (S)-5-(3-((1-(1H-tetrazol-1-yl)propan-2-yl)oxy)-4-chlorophenyl)-N-(1-(1-(pyridin-3-ylmethyl)piperidin-4-yl)-3-(trifluoromethyl)-1H-pyrazol-4-yl)pyrimidin-2-amine] | 10 to 100 |
| C[C@@H](Cn1cnnn1)Oc1cc(-c2cnc(Nc3cn(C4CCN(C5COC5)CC4)nc3C(F)(F)F)nc2)ccc1Cl [Example 562, (S)-5-(3-((1-(1H-tetrazol-1-yl)propan-2-yl)oxy)-4-chlorophenyl)-N-(1-(1-(oxetan-3-yl)piperidin-4-yl)-3-(trifluoromethyl)-1H-pyrazol-4-yl)pyrimidin-2-amine] | 10 to 100 |
| CCc1cc2c(cc1Nc1ncc(-c3ccc(C#N)c(O[C@@H](C)Cn4cnnn4)c3)cn1)CN(C1COC1)CC2 [Example 516, (S)-2-((1-(1H-tetrazol-1-yl)propan-2-yl)oxy)-4-(2-((6-ethyl-2-(oxetan-3-yl)-1,2,3,4-tetrahydroisoquinolin-7-yl)amino)pyrimidin-5-yl)benzonitrile] | 10 to 100 |
| C[C@@H](Cn1cnnn1)Oc1cc(-c2cnc(Nc3cc(N4CCC(N5CCOCC5)CC4)ncc3OC(F)(F)F)nc2)ccc1Cl [Example 537, (S)-5-(3-((1-(1H-tetrazol-1-yl)propan-2-yl)oxy)-4-chlorophenyl)-N-(2-(4-morpholinopiperidin-1-yl)-5-(trifluoromethoxy)pyridin-4-yl)pyrimidin-2-amine] | < 10 |
| COc1cc(C2CCCNC2)ccc1Nc1ncc(-c2ccc(Cl)c(O[C@@H](C)Cn3cnnn3)c2)cn1 (stereo partly drawn) [Example 473, 5-(3-(((S)-1-(1H-tetrazol-1-yl)propan-2-yl)oxy)-4-chlorophenyl)-N-(2-methoxy-4-(piperidin-3-yl)phenyl)pyrimidin-2-amine] | < 10 |
| COc1cc2c(cc1Nc1ncc(-c3ccc(Cl)c(O[C@@H](C)Cn4cnnn4)c3)cn1)CN(C1COC1)CCO2 [Example 454, (S)-N-(5-(3-((1-(1H-tetrazol-1-yl)propan-2-yl)oxy)-4-chlorophenyl)pyrimidin-2-yl)-8-methoxy-4-(oxetan-3-yl)-2,3,4,5-tetrahydrobenzo[f][1,4]oxazepin-7-amine] | ≥ 100 |

Same assay, conditions: CaMKIIδ binding assay; activity class per Table 2

| SMILES | IC50 [nM] |
| --- | --- |
| C[C@@H](Cn1cnnn1)Oc1cc(-c2cnc(Nc3cn([C@@H]4CCN(C5CCOCC5)C[C@H]4O)nc3C(F)(F)F)nc2)ccc1Cl (mixture of isomers) [Example 897, trans-4-(4-((5-(3-(((S)-1-(1H-tetrazol-1-yl)propan-2-yl)oxy)-4-chlorophenyl)pyrimidin-2-yl)amino)-3-(trifluoromethyl)-1H-pyrazol-1-yl)-1-(tetrahydro-2H-pyran-4-yl)piperidin-3-ol] | < 10 |
| CC(Cn1cnnn1)Oc1cc(-c2cnc(Nc3cn(CC4(O)CCC(O)CC4)nc3OCC(F)(F)F)nc2)ccc1Cl [Example 907, cis-1-((4-((5-(3-(((S)-1-(1H-tetrazol-1-yl)propan-2-yl)oxy)-4-chlorophenyl)pyrimidin-2-yl)amino)-3-(2,2,2-trifluoroethoxy)-1H-pyrazol-1-yl)methyl)cyclohexane-1,4-diol] | < 10 |
| CCOC(=O)C(C)(C)n1cc(Nc2ncc(-c3ccc(Cl)c(O[C@@H](C)Cn4cnnn4)c3)cn2)c(OCC(F)(F)F)n1 [Example 885, ethyl (S)-2-(4-((5-(3-((1-(1H-tetrazol-1-yl)propan-2-yl)oxy)-4-chlorophenyl)pyrimidin-2-yl)amino)-3-(2,2,2-trifluoroethoxy)-1H-pyrazol-1-yl)-2-methylpropanoate] | < 10 |
| COCCN1CC2(CC(n3cc(Nc4ncc(-c5ccc(Cl)c(O[C@@H](C)Cn6cnnn6)c5)cn4)c(C(C)C)n3)C2)C1 [Example 1012, (S)-5-(3-((1-(1H-tetrazol-1-yl)propan-2-yl)oxy)-4-chlorophenyl)-N-(3-isopropyl-1-(2-(2-methoxyethyl)-2-azaspiro[3.3]heptan-6-yl)-1H-pyrazol-4-yl)pyrimidin-2-amine] | < 10 |

Same assay, conditions: Table 2; CaMKIIδ binding assay, activity given as class A/B/C

| SMILES | IC50 [nM] |
| --- | --- |
| C[C@@H](Cn1cnnn1)Oc1cc(-c2cnc(Nc3ccnn3C)nc2)ccc1Cl [Example 735, (S)-5-(3-((1-(1H-tetrazol-1-yl)propan-2-yl)oxy)-4-chlorophenyl)-N-(1-methyl-1H-pyrazol-5-yl)pyrimidin-2-amine] | 10 to 100 |
| C[C@@H](Cn1cnnn1)Oc1cc(-c2cnc(Nc3cn([C@H]4CC[C@@H](N5CCOCC5)CC4)nc3C(F)(F)F)nc2)ccc1F [Example 807, 5-(3-(((S)-1-(1H-tetrazol-1-yl)propan-2-yl)oxy)-4-fluorophenyl)-N-(1-(cis-4-morpholinocyclohexyl)-3-(trifluoromethyl)-1H-pyrazol-4-yl)pyrimidin-2-amine] | 10 to 100 |
| C[C@@H](Cn1cnnn1)Oc1cc(-c2cnc(Nc3cn(C4CC5(C4)CN(C4COC4)C5)nc3C(F)(F)F)nc2)ccc1Cl [Example 832, (S)-5-(3-((1-(1H-tetrazol-1-yl)propan-2-yl)oxy)-4-chlorophenyl)-N-(1-(2-(oxetan-3-yl)-2-azaspiro[3.3]heptan-6-yl)-3-(trifluoromethyl)-1H-pyrazol-4-yl)pyrimidin-2-amine] | < 10 |

Same assay, conditions: Table 2; activity class for CaMKIIδ

| SMILES | IC50 [nM] |
| --- | --- |
| C[C@@H](Cn1cnnn1)Oc1cc(-c2cnc(Nc3cn([C@@H]4C[C@H]5CC[C@@H](C4)N5C4CCOCC4)nc3C(F)(F)F)nc2)ccc1Cl [Example 703, 5-(3-(((S)-1-(1H-tetrazol-1-yl)propan-2-yl)oxy)-4-chlorophenyl)-N-(1-((1R,3s,5S)-8-(tetrahydro-2H-pyran-4-yl)-8-azabicyclo[3.2.1]octan-3-yl)-3-(trifluoromethyl)-1H-pyrazol-4-yl)pyrimidin-2-amine] | < 10 |
| C[C@@H](Cn1cnnn1)Oc1cc(-c2cnc(Nc3cn(CCN4CCOCC4)nc3C(F)(F)F)nc2)ccc1Cl [Example 633, (S)-5-(3-((1-(1H-tetrazol-1-yl)propan-2-yl)oxy)-4-chlorophenyl)-N-(1-(2-morpholinoethyl)-3-(trifluoromethyl)-1H-pyrazol-4-yl)pyrimidin-2-amine] | 10 to 100 |
| C[C@@H](Cn1cnnn1)Oc1cc(-c2cnc(Nc3cn(CC4CCCN4C4COC4)nc3C(F)(F)F)nc2)ccc1Cl (stereo partly drawn) [Example 609, 5-(3-(((S)-1-(1H-tetrazol-1-yl)propan-2-yl)oxy)-4-chlorophenyl)-N-(1-((1-(oxetan-3-yl)pyrrolidin-2-yl)methyl)-3-(trifluoromethyl)-1H-pyrazol-4-yl)pyrimidin-2-amine] | 10 to 100 |
| C[C@@H](Cn1cnnn1)Oc1cc(-c2cnc(Nc3ccn(Cc4ccccc4)n3)nc2)ccc1Cl [Example 714, (S)-5-(3-((1-(1H-tetrazol-1-yl)propan-2-yl)oxy)-4-chlorophenyl)-N-(1-benzyl-1H-pyrazol-3-yl)pyrimidin-2-amine] | 10 to 100 |
| CC(C#N)n1cc(Nc2ncc(-c3ccc(Cl)c(O[C@@H](C)Cn4cnnn4)c3)cn2)c(C(F)(F)F)n1 (stereo partly drawn) [Example 716, 2-(4-((5-(3-(((S)-1-(1H-tetrazol-1-yl)propan-2-yl)oxy)-4-chlorophenyl)pyrimidin-2-yl)amino)-3-(trifluoromethyl)-1H-pyrazol-1-yl)propanenitrile] | 10 to 100 |

From patent US10543212B2, “Substituted amines for treating cardiac diseases” (Cardurion Pharmaceuticals, LLC, priority 2017, dated 2020)
